Experimental data from patent US4401660A, “Ester derivatives of 5-O-mycaminosyl tylonolide and method of using same” (Eli Lilly and Company, priority 1981, dated 1983).

Columns and labels:
Assay type in all cases: cell-based
Parameters in all cases: unit not given here
[1] = tested on: Pasteurella haemolytica 23C; assay: MIC, broth-dilution microtiter test (Table III)
Method: (§1) The MIC's in Table II were determined by standard agar-dilution assays. The MIC's in Table III were obtained using a conventional broth-dilution microtiter test.

[2] = tested on: Pasteurella multocida 68C; assay: MIC, broth-dilution microtiter test (Table III)
Method: as §1

[3] = tested on: Pasteurella haemolytica 41D; assay: MIC, broth-dilution microtiter test (Table III)
Method: as §1

[4] = tested on: Staphylococcus aureus; assay: MIC, broth-dilution microtiter test (Table III)
Method: as §1

[5] = tested on: Streptococcus sp. 80; assay: MIC, broth-dilution microtiter test (Table III)
Method: as §1

[6] = tested on: Pasteurella multocida 60A; assay: MIC, broth-dilution microtiter test (Table III); conditions: avian isolate
Method: as §1

[7] = tested on: Mycoplasma synoviae; assay: MIC, broth-dilution microtiter test (Table III)
Method: as §1

[8] = tested on: Pasteurella multocida 17E; assay: MIC, broth-dilution microtiter test (Table III); conditions: bovine isolate
Method: as §1

[9] = tested on: Mycoplasma hyorhinis; assay: MIC, broth-dilution microtiter test (Table III)
Method: as §1

[10] = tested on: Pasteurella multocida 40G; assay: MIC, broth-dilution microtiter test (Table III)
Method: as §1

[11] = tested on: Pasteurella haemolytica 22C; assay: MIC, broth-dilution microtiter test (Table III)
Method: as §1

[12] = tested on: Mycoplasma gallisepticum; assay: MIC, broth-dilution microtiter test (Table III)
Method: as §1

[13] = tested on: Pasteurella multocida 22A; assay: MIC, broth-dilution microtiter test (Table III)
Method: as §1

[14] = tested on: Staphylococcus aureus X400; assay: MIC, standard agar-dilution assay (Table II); conditions: Staphylococcus aureus X400, methicillin-resistant strain
Method: as §1

[15] = tested on: Streptococcus Group D X66; assay: MIC, standard agar-dilution assay (Table II)
Method: as §1

[16] = tested on: Staphylococcus epidermidis EPI1; assay: MIC, standard agar-dilution assay (Table II)
Method: as §1

[17] = tested on: Streptococcus pneumoniae Park I; assay: MIC, standard agar-dilution assay (Table II)
Method: as §1

[18] = tested on: Staphylococcus aureus S13E; assay: MIC, standard agar-dilution assay (Table II)
Method: as §1

[19] = tested on: Staphylococcus epidermidis EPI2; assay: MIC, standard agar-dilution assay (Table II)
Method: as §1

[20] = tested on: Staphylococcus aureus X1.1; assay: MIC, standard agar-dilution assay (Table II)
Method: as §1

[21] = tested on: Streptococcus pyogenes C203; assay: MIC, standard agar-dilution assay (Table II)
Method: as §1

[22] = tested on: Streptococcus Group D 9960; assay: MIC, standard agar-dilution assay (Table II)
Method: as §1

[23] = tested on: Staphylococcus aureus V41; assay: MIC, standard agar-dilution assay (Table II); conditions: Staphylococcus aureus V41, penicillin-resistant strain
Method: as §1

SMILES | minimal inhibitory concentration (MIC) [1] | minimal inhibitory concentration (MIC) [2] | minimal inhibitory concentration (MIC) [3] | minimal inhibitory concentration (MIC) [4] | minimal inhibitory concentration (MIC) [5] | minimal inhibitory concentration (MIC) [6] | minimal inhibitory concentration (MIC) [7] | minimal inhibitory concentration (MIC) [8] | minimal inhibitory concentration (MIC) [9] | minimal inhibitory concentration (MIC) [10] | minimal inhibitory concentration (MIC) [11] | minimal inhibitory concentration (MIC) [12] | minimal inhibitory concentration (MIC) [13] | minimal inhibitory concentration (MIC) [14] | minimal inhibitory concentration (MIC) [15] | minimal inhibitory concentration (MIC) [16] | minimal inhibitory concentration (MIC) [17] | minimal inhibitory concentration (MIC) [18] | minimal inhibitory concentration (MIC) [19] | minimal inhibitory concentration (MIC) [20] | further results
CCC1OC(=O)CC(O)C(C)C(OC2OC(C)C(OC(=O)CC(C)C)C(N(C)C)C2OC(C)=O)C(CC=O)CC(C)C(=O)C=CC(C)=CC1COC(=O)CC(C)C (stereo not shown) [Compound 50, 2'-O-Acetyl-4',23-di-O-isovaleryl-OMT] | 25 | 6.25 | 25 | 0.39 | 0.39 | 6.25 | 1.56 | 12.5 | 6.25 | 3.12 | 25 | 0.195 | 25 | 2 | 1 | 1 | 0.5 | 1 | 1 | 1 | minimal inhibitory concentration (MIC) [21]: 1; minimal inhibitory concentration (MIC) [22]: 1; minimal inhibitory concentration (MIC) [23]: 2
CCC1OC(=O)CC(O)C(C)C(OC2OC(C)C(OC(=O)CC(C)C)C(N(C)C)C2OC(C)=O)C(CC=O)CC(C)C(=O)C=CC(C)=CC1COC(C)=O (stereo not shown) [Compound 51, 2',23-Di-O-Acetyl-4'-O-isovaleryl-OMT] | 3.12 | 3.12 | 3.12 | 0.78 | 0.78 | 3.12 | 0.78 | 3.12 | 6.25 | 3.12 | 3.12 | < 0.05 | 6.25 | 1 | 1 | 0.5 | 0.125 | 0.5 | 1 | 1 | minimal inhibitory concentration (MIC) [21]: 0.25; minimal inhibitory concentration (MIC) [22]: 1; minimal inhibitory concentration (MIC) [23]: 1
